Reference: patent US11540539B2, “Reduced sodium food products” (GENERAL MILLS, INC., priority 2013, dated 2023)

Assays:
perception of saltiness [1] = test: Broth DAP test: trained panel rates saltiness of compounds in simple broth; type: in vivo; settings: individual compounds in simple broth; DAP score greater than 7.6 indicates saltiness or salt enhancement
Method: (§1) Briefly, each individual tested compound was placed in water and in sodium solution to test saltiness and saltiness enhancement potential. Tests in water were executed in a compound concentration of 10 ppm. Tests in sodium solution were executed in compound concentrations of 0.1, 1 and 10 ppm. Two control sodium solutions with known organoleptic salt intensities were provided as references for each test. The test for individual compounds was also conducted using simple broth instead of sodium solution. A number of compound combinations identified from the Na-solution DAP test were used for the broth DAP test. Tests were executed with a trained panel of 9-12 assessors. For Na-solution DAP tests, a DAP score of greater than 3.1 indicates saltiness or salt enhancement. The DAP score can be correlated with a sodium reduction potential by subtracting 3.1 from the DAP score.

perception of saltiness [2] = test: Na-solution DAP test: trained panel rates saltiness of compounds in sodium solution; type: in vivo; settings: individual compounds in sodium solution; compound concentrations of 0.1, 1 and 10 ppm; DAP score greater than 3.1 indicates saltiness or salt enhancement
Method: as §1

Compound	DAP in Broth (perception of saltiness [1])	DAP in Na-Sol. (perception of saltiness [2])
CCCCCCCCCCC[C@@H](O)CC(=O)CCc1ccc(O)c(OC)c1 [Compound 1]	7.8	
CCCCCCCCC/C=C/C(=O)CCc1ccc(O)c(OC)c1 [Compound 2]	7.8	
CCCCCC(CC(CCc1ccc(O)c(OC)c1)OC(C)=O)OC(C)=O (stereo not drawn) [Compound 3]	8.8	
CCC/C=C\C/C=C\CCCC/C=C\Cc1cc(O)cc(O)c1 [Compound 10]	7.9	
COc1cc(CC/C=C/C(=O)CCc2ccccc2)ccc1O [Compound 11]	8.1	
COc1cc(CCC(O)CC(=O)CCc2ccccc2)ccc1O (stereo not drawn) [Compound 12]	7.6	
COc1cc(COC(=O)CCCC/C=C/C(C)C)ccc1O [Compound 13]	7.9	
CC(C)CNC(=O)/C=C/C=C/CCCCCC/C=C/c1ccc2c(c1)OCO2 [Compound 15]	8.1	3.5
CCCCC/C=C\CCCCCCc1cc(=O)c2ccccc2n1C [Compound 16]	8.0	
O=C(/C=C/C=C/c1ccc2c(c1)OCO2)N1CCCCC1 [Compound 18]	8.1	
COc1cc(CNC(=O)CCCCCCC(C)C)ccc1O [Compound 21]		4
COc1cc2oc(=O)ccc2c(OC)c1CC=C(C)C [Compound 28]		3.6
C=CC(C)(O)CCC1(C)C2=C(C(OC(C)=O)C(OC(C)=O)C1C)C(C)(C)CCC2 (stereo not drawn) [Compound 29]	8.0	
C=C[C@@]1(C)CC(=O)C2[C@]3(C)C(C[C@@H](O)[C@@]2(O)C1=O)C(C)(C)[C@H](OC(C)=O)[C@H](OC(C)=O)[C@@H]3OC(=O)c1ccccc1 (stereo partly drawn) [Compound 32]	8.1	
C/C=C(\C)C(=O)O[C@H]1[C@H](O)[C@]2(CO)[C@H](O)C[C@]3(C)C(=CCC4[C@@]5(C)CC[C@H](O[C@@H]6O[C@H](C(=O)O)[C@@H](O[C@@H]7O[C@H](CO)[C@@H](O)[C@H](O)[C@H]7O)[C@H](O)[C@H]6O[C@@H]6O[C@H](CO)[C@@H](O)[C@H](O)[C@H]6O)[C@](C)(CO)C5CC[C@]43C)[C@@H]2CC1(C)C (stereo partly drawn) [Compound 34]	7.7	
C=CC(C)(O)CC/C=C(\C)C(=O)OC1C(OCC2OC(OC(=O)C34CCC(C)(C)CC3C3=CCC5C6(C)CCC(OC7OC(COC8OCC(O)C(O)C8OC8OCC(O)C(O)C8O)C(O)C(O)C7O)C(C)(C)C6CCC5(C)C3(C)CC4O)C(OC3OC(C)C(OC4OCC(O)C(OC5OCC(O)C(O)C5O)C4O)C(O)C3O)C(OC(=O)/C(C)=C/CCC(C)(O)C=C)C2O)OC(C)C(O)C1O (stereo not drawn) [Compound 35]	8.1	3.7
CC1CCC2(OC1)OC1CC3C4CCC5CC(OC6OC(CO)C(OC7OC(CO)C(O)C(OC8OC(CO)C(O)C(OC9OCC(O)C(O)C9O)C8O)C7O)C(OC7OCC(O)C(O)C7O)C6O)CCC5(C)C4CC(=O)C3(C)C1C2C (stereo not drawn) [Compound 37]	8.1	3.7
CC(=O)OC1C(O)COC(OC2C(O)C(C)OC(OC(C)(CCC=C(C)C)C3C(O)CC4(C)C3CCC3C5(C)CCC(OC6OCC(O)C(O)C6O)C(C)(C)C5CCC34C)C2O)C1O (stereo not drawn) [Compound 38]	8.1	3.9
CC1(C)CC[C@]2(C(=O)O)CC[C@]3(C)C(=CCC4[C@@]5(C)C[C@@H](O)[C@H](O)C(C)(C)C5CC[C@]43C)C2C1 (stereo partly drawn) [Compound 42]	8.1	3.1
C[C@H]1[C@H](C)CC[C@]2(C(=O)O)CC[C@]3(C)C(=CC[C@@H]4[C@@]5(C)CC[C@H](O)C(C)(C)[C@@H]5CC[C@]43C)[C@H]12 [Compound 43]	8.0	
COc1cc2c(c(OC)c1OC)-c1c(cc3c(c1OC)OCO3)C[C@H](C)[C@@](C)(O)C2 [Compound 44]	8.6	3.8
COc1cc2c(c(OC)c1OC)-c1c(cc(OC)c(OC)c1OC)C[C@H](C)[C@H](C)C2 [Compound 45]	8.2	
COc1cc2c(c(OC)c1OC)-c1c(cc3c(c1OC)OCO3)CC(C)C(C)C2 (stereo not drawn) [Compound 46]	7.8	

Compound	DAP in Broth (perception of saltiness [1])	DAP in Na-Sol. (perception of saltiness [2])
COc1cc(CC(C)C(C)Cc2ccc(O)c(OC)c2)ccc1O (stereo not drawn) [Compound 49]	8.2	
COc1cc(O)c(C(C)=O)c(OC)c1 [Compound 53]	8.5	
COc1cc(C2c3cc4c(cc3CC3COC(=O)C32)OCO4)cc(OC)c1OC (stereo not drawn) [Compound 59]	7.9	3.3
CC(C)C(=O)c1c2c(c3oc(=O)cc(-c4ccccc4)c3c1O)CC(C(C)(C)O)O2 (stereo not drawn) [Compound 60]	8.1	3.8
COc1c2ccoc2cc2oc(=O)ccc12 [Compound 62]	78.0	3.9
CC(C)(O)C(O)COc1c2ccoc2cc2oc(=O)ccc12 (stereo not drawn) [Compound 63]	8.0	
CC(C)=CCOc1c2occc2cc2ccc(=O)oc12 [Compound 64]	7.8	3.7
COc1c2ccoc2c(OCC=C(C)C)c2oc(=O)ccc12 [Compound 65]	7.9	3.3
CC(=O)OC1CCC2(C)C(COc3ccc4ccc(=O)oc4c3)C(C)(O)CCC2C1(C)C (stereo not drawn) [Compound 66]	7.8	3.2
C[C@]12CC[C@H](O)C[C@H]1CC[C@@H]1[C@@H]2CC[C@]2(C)[C@@H](C3=CC(=O)OC3)CC[C@]12O [Compound 73]	8.0	3.5
CC(=O)O[C@@H]1CC2C(C)(C)C(=O)C=C[C@]2(C)C2CC[C@]3(C)C(=CC(=O)C3c3ccoc3)[C@@]21C (stereo partly drawn) [Compound 74]	7.7	3.2
C/C=C1\C(=O)CC2C3CCC4=CC(=O)CCC4(C)C3CCC12C (stereo not drawn) [Compound 75]		3.6
COC1CC(OC2CCC3(C=O)C(CCC4C3CCC3(C)C(C5=CC(=O)OC5)CCC43O)C2)OC(C)C1OC1OC(CO)C(O)C(O)C1O (stereo not drawn) [Compound 76]	8.0	3.2
COC1CC(OC2CCC3(C=O)C(CCC4C3CCC3(C)C(C5=CC(=O)OC5)CCC43O)C2)OC(C)C1O (stereo not drawn) [Compound 77]	8.1	3.4
C=CCCCCCCC(C(=O)O)C(O)CC(=O)O (stereo not drawn) [Compound 81]	7.8	3.2
C=CCCCCCCCCCCC[C@H](O)C[C@H](O)CO [Compound 82]	8.3	3.8
C=CCCCCCCCCCCCC(CC(O)COC(C)=O)OC(C)=O (stereo not drawn) [Compound 83]	8.1	4.2
CCCCCCCCCCNC(C)=O [Compound 84]	8.1	3.8
CC/C=C\C/C=C\C=C\[C@H](O)CCCCCCCC(=O)O [Compound 85]		2.9
CC/C=C\C=C\C(O)C/C=C\CCCCCCCC(=O)O (stereo not drawn) [Compound 86]	8.0	3.9
CCCCCCCC/C=C/C(O)CCCCCCC(=O)OCC(O)CO (stereo not drawn) [Compound 87]	8.0	
CCCCC/C=C/C=C/C(O)CCCCCCCC(=O)O (stereo not drawn) [Compound 88]	8.0	
